Here are results for nine compounds from US10508109B2 (priority 2015, dated 2019).

Where a name gives a salt, the structure may show the parent alone. Read-outs that look alike come from different tables or passages of the source.

One assay has as its system HFL1. Nature of the assay: Cell-based assay, anti-proliferative activity (Cell Counting Kit-8, 72 hours). The conditions noted are these: Homo sapiens, read-out: IC50 (μM) HFL1. The method in brief: (§1)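 CCK-8 growth read-out at 72 h post compound exposure; 96-well seeding. IC50 from 8-point dilution (0–100 micro-M, twofold steps from 1.5625 micro-M).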
In the next assay the test system is CCD-18Co. The description is as above. The conditions noted are these: Homo sapiens, read-out: IC50 (μM) CCD-18Co. An outline of the steps: as §1
For the next assay, the system named is HCT-116. The assay is described as above. As to conditions: Homo sapiens, read-out: IC50 (μM) HCT-116. An outline of the steps: as §1
In the next assay the target is SUV39H2 (Homo sapiens (Human), UniProt Q9H5I1). As to conditions: read-out: IC50 (μM) Suv 39H2 assay.
In the next assay the test system is A549. Nature of the assay: Cell-based assay, anti-proliferative activity (Cell Counting Kit-8, 72 hours). The conditions noted are these: Homo sapiens, read-out: IC50 (μM) A549. An outline of the steps:
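After compound exposure of cells in 96-well plates, growth was measured colorimetrically and converted into IC50 values.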
On the technique in general: Tetrazolium dyes change colour on reduction, which living cells bring about.

Setting [1] is: HFL1 cells, Cell Counting Kit-8, 72 hours.
The mark [2] stands for this setting: CCD-18Co cells, Cell Counting Kit-8, 72 hours.
Where [3] appears, read: HCT-116 cells, Cell Counting Kit-8, 72 hours.
Where [4] appears, read: A549 cells, Cell Counting Kit-8, 72 hours.

SUV39H2, sequence (Q9H5I1 whole entry): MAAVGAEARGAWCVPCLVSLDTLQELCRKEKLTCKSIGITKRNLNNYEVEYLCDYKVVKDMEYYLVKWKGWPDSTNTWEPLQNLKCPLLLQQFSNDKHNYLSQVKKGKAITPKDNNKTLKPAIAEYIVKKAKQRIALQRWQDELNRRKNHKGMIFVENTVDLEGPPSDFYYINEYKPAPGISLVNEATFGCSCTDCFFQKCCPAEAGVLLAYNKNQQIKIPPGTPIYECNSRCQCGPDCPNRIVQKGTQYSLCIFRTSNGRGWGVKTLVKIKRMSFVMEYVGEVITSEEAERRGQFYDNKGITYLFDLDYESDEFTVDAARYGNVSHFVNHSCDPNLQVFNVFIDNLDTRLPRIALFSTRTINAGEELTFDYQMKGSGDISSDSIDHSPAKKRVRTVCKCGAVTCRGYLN

On to `CCOC(=O)N1CCN(c2ccn3cc(-c4cc(Cl)c(OC)cc4OC)nc3c2)CC1` [Example 107, ethyl 4-[2-(5-chloro-2,4-dimethoxyphenyl)imidazo[1,2-a]pyridin-7-yl]-piperazine-1-carboxylate], for which the IC50 (in general, the concentration that inhibits the measured activity by half) turned out to be 1.7 µM in the assay with HFL1 (setting [1]); 3.2 µM in the assay on CCD-18Co (setting [2]); 1.7 µM with HCT-116 (setting [3]); 0.0116 µM on SUV39H2 (enzyme assay); 2.3 µM in the assay with A549 (setting [4]).

Consider `COc1cc(OC)c(-c2cn3ccc(N4CCN(CCC#N)CC4)cc3n2)cc1Cl` [Example 108, 3-(4-(2-(5-chloro-2,4-dimethoxyphenyl)imidazo[1,2-a]pyridin-7-yl)piperazin-1-yl)propanenitrile], for which the IC50 is 3 µM in the assay on HFL1 (setting [1]); 5.9 µM in the assay with CCD-18Co (setting [2]); 10 µM in the assay with HCT-116 (setting [3]); 0.0142 µM on SUV39H2 (enzyme assay); 6.3 µM with A549 (setting [4]).

Regarding `COc1cc(OC)c(-c2cn3ccc(C4=CCN(CCC#N)CC4)cc3n2)cc1Cl` [Example 109, 3-(4-(2-(5-chloro-2,4-dimethoxyphenyl)imidazo[1,2-a]pyridin-7-yl)-5,6-dihydropyridin-1(2H)-yl)propanenitrile], the half-inhibitory concentration (IC50) worked out at 1.8 µM with HFL1 (setting [1]); 2.6 µM in the assay with CCD-18Co (setting [2]); 5.1 µM in the assay with HCT-116 (setting [3]); 0.0417 µM on SUV39H2 (enzyme assay); 5.9 µM with A549 (setting [4]).

As for `COc1cc(OC)c(-c2cn3ccc(C4=CCN(CC#N)CC4)cc3n2)cc1Cl` [Example 111, 2-(4-(2-(5-chloro-2,4-dimethoxyphenyl)imidazo[1,2-a]pyridin-7-yl)-5,6-dihydropyridin-1(2H)-yl)acetonitrile], the half-maximal inhibitory concentration (IC50) in the assay with HFL1 (setting [1]) is 1.9 µM; in the assay with CCD-18Co (setting [2]), 4.8 µM; in the assay on HCT-116 (setting [3]) it was 3.5 µM; on SUV39H2 (enzyme assay), 0.0614 µM; in the assay on A549 (setting [4]) it was 3.3 µM.

Regarding `COc1cc(OC)c(-c2cn3ccc(C4CCNCC4)cc3n2)cc1Cl` [Example 112, 2-(5-chloro-2,4-dimethoxyphenyl)-7-(piperidin-4-yl)imidazo[1,2-a]pyridine], the IC50 in the assay with HFL1 (setting [1]) amounted to 6.7 µM; in the assay with CCD-18Co (setting [2]) it was 8.8 µM; in the assay with HCT-116 (setting [3]), 7.5 µM; at SUV39H2 (enzyme assay), 0.0623 µM; in the assay with A549 (setting [4]) it was 6.3 µM.

For the compound `COc1cc(OC)c(-c2cn3ccc(C4=CCN(CCF)CC4)cc3n2)cc1Cl` [Example 113, 2-(5-chloro-2,4-dimethoxyphenyl)-7-(1-(2-fluoroethyl)-1,2,3,6-tetrahydropyridin-4-yl)imidazo[1,2-a]pyridine], the IC50 in the assay with HFL1 (setting [1]) is 5.2 µM; with CCD-18Co (setting [2]), 7.6 µM; with HCT-116 (setting [3]), 6.7 µM; on SUV39H2 (enzyme assay), 0.0571 µM; in the assay on A549 (setting [4]), 6.7 µM.

In the case of `COc1cc(OC)c(-c2cn3cc(CCCCN)c(N4CCOCC4)cc3n2)cc1Cl` [Example 114, 4-(2-(5-chloro-2,4-dimethoxyphenyl)-7-morpholinoimidazo[1,2-a]pyridin-6-yl)butan-1-amine], the concentration for half-maximal inhibition (IC50) in the assay with HFL1 (setting [1]) was found to be 6.2 µM; in the assay with CCD-18Co (setting [2]) it was 8.9 µM; in the assay on HCT-116 (setting [3]), 7.9 µM; on SUV39H2 (enzyme assay) it was 0.0502 µM; in the assay with A549 (setting [4]), 8.7 µM.

Regarding `COc1cc(OC)c(-c2cn3cc(N4CCNCC4)ccc3n2)cc1Cl` [Example 115, 2-(5-chloro-2,4-dimethoxyphenyl)-6-(piperazin-1-yl)imidazo[1,2-a]-pyridine hydrochloride], the IC50 in the assay with HFL1 (HFL1, 72 h) was 8.4 µM; in the assay with CCD-18Co (CCD-18Co, 72 h), 13 µM; in the assay on HCT-116 (HCT-116, 72 h), 7.7 µM; on SUV39H2 it was 0.0179 µM; in the assay on A549 (A549, 72 h) it was 9.4 µM.

For `COCCCN1CC=C(c2ccn3cc(-c4cc(Cl)c(OC)cc4OC)nc3c2)CC1` [Example 116, 2-(5-Chloro-2,4-dimethoxyphenyl)-7-(1-(3-methoxypropyl)-1,2,3,6-tetrahydropyridin-4-yl)imidazo[1,2-a]pyridine], the IC50 came out at 6.6 µM in the assay with HFL1 (setting [1]); 11 µM in the assay with CCD-18Co (setting [2]); 7 µM in the assay with HCT-116 (setting [3]); 0.0738 µM on SUV39H2 (enzyme assay); 6.1 µM in the assay on A549 (setting [4]).
